± gives the expanded uncertainty stated by the source.

For this data set the following is noted: Liquid.
Turning to `C/C=C/C(=O)OCC` [ethyl trans-2-butenoate], the Critical pressure is given as 3670.8 ± 300 kPa and the Critical temperature amounted to 593.84 ± 3.7 K.
For the compound `CCCC(=O)OCC` [ethyl butanoate], the Critical pressure is listed as 2891.5 ± 300 kPa and the Critical temperature is 569.98 ± 3.7 K.
For `O=C=O` [carbon dioxide], in that order: 7379.8 ± 300 kPa and 304.3 ± 3.7 K.
Take `CCCCCCC(=O)OCC` [ethyl heptanoate]: the Critical pressure turned out to be 2356.9 ± 300 kPa and the Critical temperature amounted to 635.12 ± 3.7 K.
Turning to `CCOC(=O)CC` [ethyl propanoate], the Critical pressure is recorded as 3385.6 ± 300 kPa and the Critical temperature stood at 546.28 ± 3.7 K.
On to `CCOC(C)=O` [ethyl acetate], for which the Critical pressure was found to be 3828.9 ± 300 kPa and the Critical temperature came to 523.29 ± 3.7 K.
Turning to `CCCCCC(=O)OCC` [ethyl hexanoate], the Critical pressure was determined as 2531.3 ± 300 kPa and the Critical temperature worked out at 615.22 ± 3.7 K.
For `CCCCC(=O)OCC` [ethyl pentanoate], in that order: 2730.4 ± 300 kPa and 594.02 ± 3.7 K.
For `CCCCCCCC(=O)OCC` [ethyl octanoate], in that order: 2159.2 ± 300 kPa and 655.74 ± 3.7 K.

The values above are taken from the NIST ThermoML archive (doi:10.1021/je5002494).
